# Data reported in patent publication US20080176936A1, “Classes of Compounds that Interact with Integrins” (priority 2005, published 2008).
# Target: T1, αVβ3 integrin (Homo sapiens, UniProt P05106+P06756)
# T1 construct: the cell line WM-115 was used as a source of αVβ3 integrin; endogenous in cells; host or cells: WM-115 cell line
# Experiment: ELISA: inhibition of binding of αVβ3 integrin (source WM-115 cell line) to coated extracellular matrix protein
# Conditions: WM-115 cell line as integrin source
# Protocol: (§1) An ELISA assay based on the published method of Bethert et al., 2000, J Biol Chem 275, 33308-23, was employed.
# (§2) Briefly, appropriate microtitre plates were coated with either Fibrinogen or Vitronectin (10 μg/well). These extracellular matrix proteins contain the RGD amino acid sequence that is recognized by αllbβ3 integrin. Human platelet membrane preparations were used as a source of αllbβ3 integrin and the cell line WM-115 was used as a source of αVβ3 integrin. Inhibition of the binding of αllbβ3 integrin containing membrane preparations to the extracellular matrix protein was determined by pre-incubating the platelet membrane preparation with test or control compounds. The binding of the αllbβ3 integrin containing membrane was the quantitated by using a rabbit anti-integrinβ3 antibody, a horse radish peroxidase coupled second antibody and a standard colorimetric detection system.
# T1 sequence (P06756 31-889 limits assumed): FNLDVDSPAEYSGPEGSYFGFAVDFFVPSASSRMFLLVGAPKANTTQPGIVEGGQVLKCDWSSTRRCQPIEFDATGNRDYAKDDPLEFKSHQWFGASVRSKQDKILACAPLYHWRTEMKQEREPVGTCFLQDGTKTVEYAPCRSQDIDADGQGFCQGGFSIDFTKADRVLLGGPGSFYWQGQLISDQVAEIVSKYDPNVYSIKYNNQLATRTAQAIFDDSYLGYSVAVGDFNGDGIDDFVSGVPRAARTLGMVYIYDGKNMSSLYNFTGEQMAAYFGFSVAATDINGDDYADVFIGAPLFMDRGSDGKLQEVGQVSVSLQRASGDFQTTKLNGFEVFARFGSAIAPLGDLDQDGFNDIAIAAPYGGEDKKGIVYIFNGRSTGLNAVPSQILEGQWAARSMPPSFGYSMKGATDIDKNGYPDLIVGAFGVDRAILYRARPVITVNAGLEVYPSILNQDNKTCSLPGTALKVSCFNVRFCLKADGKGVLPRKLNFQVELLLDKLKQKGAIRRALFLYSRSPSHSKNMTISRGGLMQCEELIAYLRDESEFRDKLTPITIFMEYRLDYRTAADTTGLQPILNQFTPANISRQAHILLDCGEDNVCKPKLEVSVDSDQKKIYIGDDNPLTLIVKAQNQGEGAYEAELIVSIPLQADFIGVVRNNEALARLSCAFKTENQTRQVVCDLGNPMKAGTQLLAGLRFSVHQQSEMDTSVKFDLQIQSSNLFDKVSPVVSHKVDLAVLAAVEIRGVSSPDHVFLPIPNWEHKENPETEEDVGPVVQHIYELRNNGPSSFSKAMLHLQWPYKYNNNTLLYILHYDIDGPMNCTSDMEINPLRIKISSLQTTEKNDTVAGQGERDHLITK
# T1 sequence (P06756 891-1048 partner limits assumed): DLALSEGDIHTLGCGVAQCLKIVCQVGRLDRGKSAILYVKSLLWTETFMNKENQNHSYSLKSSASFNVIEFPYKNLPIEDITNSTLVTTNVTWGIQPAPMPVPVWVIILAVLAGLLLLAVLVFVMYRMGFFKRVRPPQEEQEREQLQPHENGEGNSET
# T1 sequence (P05106 27-788): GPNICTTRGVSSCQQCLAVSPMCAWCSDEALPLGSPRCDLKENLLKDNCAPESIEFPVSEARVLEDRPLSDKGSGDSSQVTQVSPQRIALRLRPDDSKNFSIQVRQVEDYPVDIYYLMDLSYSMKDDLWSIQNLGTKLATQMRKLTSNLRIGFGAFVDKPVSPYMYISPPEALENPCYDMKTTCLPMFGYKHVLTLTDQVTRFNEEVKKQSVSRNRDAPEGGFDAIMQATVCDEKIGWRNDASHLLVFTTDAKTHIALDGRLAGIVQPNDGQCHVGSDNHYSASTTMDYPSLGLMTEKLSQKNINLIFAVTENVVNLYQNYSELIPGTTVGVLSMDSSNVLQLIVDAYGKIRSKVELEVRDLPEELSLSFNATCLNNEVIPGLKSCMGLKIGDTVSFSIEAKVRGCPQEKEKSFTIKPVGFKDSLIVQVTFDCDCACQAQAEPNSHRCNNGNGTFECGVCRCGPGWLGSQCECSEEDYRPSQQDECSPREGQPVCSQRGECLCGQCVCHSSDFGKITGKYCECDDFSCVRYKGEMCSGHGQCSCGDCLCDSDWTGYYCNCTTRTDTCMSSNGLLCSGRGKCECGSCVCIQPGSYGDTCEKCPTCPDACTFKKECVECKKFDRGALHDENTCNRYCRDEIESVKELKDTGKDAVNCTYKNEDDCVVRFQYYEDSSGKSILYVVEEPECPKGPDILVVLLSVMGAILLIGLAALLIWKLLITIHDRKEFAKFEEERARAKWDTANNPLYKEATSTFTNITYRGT
row,SMILES,INHIBITION 250 uM RECEPTOR aVb3 SUBSTRATE FIBRINOGEN
1,"COC1OC(COCc2ccc(Br)cc2)C(O)C(OCc2cccc(N)c2)C1NC(=O)CCC(=O)O (single isomer, unassigned) [Compound 25]",+++ (81% to 100% inhibition at 250 micromolar)
2,"Nc1cccc(COC2C(O)C(COCc3ccc(Br)cc3)OC(O)C2NC(=O)CCC(=O)O)c1 (single isomer, unassigned) [Compound 26]",++ (61% to 80% inhibition at 250 micromolar)
3,"COC1OC(COCC(=O)O)C(O)C(OCc2cccc(N)c2)C1NC(=O)c1ccccc1 (single isomer, unassigned) [Compound 27]",+++ (81% to 100% inhibition at 250 micromolar)
4,"COC1OC(COCC(=O)O)C(O)C(OCc2cccc(N)c2)C1NC(=O)c1ccccc1 (single isomer, unassigned) [Compound 28]",+++ (81% to 100% inhibition at 250 micromolar)
5,"Nc1cccc(COC2C(O)C(COCC(=O)O)OC(O)C2NC(=O)c2ccccc2)c1 (single isomer, unassigned) [Compound 29]",+++ (81% to 100% inhibition at 250 micromolar)
6,"COC1OC(COCc2ccc(C(=O)O)cc2)C(O)C(OCc2cccc(N)c2)C1NC(=O)c1ccc(Cl)cc1 (single isomer, unassigned) [Compound 30]",+++ (81% to 100% inhibition at 250 micromolar)
7,"COC1O[C@H](COCc2ccc(C(=O)O)cc2)[C@@H](O)[C@H](OCc2cccc(N)c2)[C@H]1NC(=O)c1ccc(Cl)cc1 (single isomer, unassigned) [Compound 31]",+++ (81% to 100% inhibition at 250 micromolar)
8,"CCOC1O[C@H](COCC(=O)O)[C@@H](O)[C@H](OCc2ccccc2)[C@H]1NC(=O)c1cccc(N)c1 (single isomer, unassigned) [Compound 32]",− (0% to 35% inhibition at 250 micromolar)
9,"Nc1cccc(C(=O)N[C@H]2C(O)O[C@H](COCC(=O)O)[C@@H](O)[C@@H]2OCc2ccccc2)c1 (single isomer, unassigned) [Compound 33]",− (0% to 35% inhibition at 250 micromolar)
10,"Nc1cccc(C(=O)N[C@H]2C(O)O[C@H](COCC(=O)O)[C@@H](O)[C@@H]2OCc2ccccc2)c1 (single isomer, unassigned) [Compound 34]",+++ (81% to 100% inhibition at 250 micromolar)
11,"CCOC1O[C@H](COCc2ccc(C(=O)O)cc2)[C@@H](O)[C@H](OCc2ccccc2)[C@H]1NC(=O)c1cccc(N)c1 (single isomer, unassigned) [Compound 35]",+++ (81% to 100% inhibition at 250 micromolar)
12,"CCOC1O[C@H](COCc2cccc(N)c2)[C@@H](O)[C@H](OCc2ccccc2)[C@H]1NC(=O)c1ccc(C(=O)O)cc1 (single isomer, unassigned) [Compound 36]",+++ (81% to 100% inhibition at 250 micromolar)
13,"CCOC1O[C@H](COCc2cccc(N)c2)[C@@H](O)[C@H](OCc2ccccc2)[C@H]1NC(=O)c1ccc(C(=O)O)cc1 (single isomer, unassigned) [Compound 37]",+++ (81% to 100% inhibition at 250 micromolar)
14,"CCOC1O[C@H](COCC(=O)O)[C@@H](O)[C@H](OCc2ccc(Br)cc2)[C@H]1NC(=O)c1cccc(N)c1 (single isomer, unassigned) [Compound 38]",+++ (81% to 100% inhibition at 250 micromolar)
15,"CCOC1O[C@H](COCC(=O)O)[C@@H](O)[C@H](OCc2ccc(Br)cc2)[C@H]1NC(=O)c1cccc(N)c1 (single isomer, unassigned) [Compound 39]",+++ (81% to 100% inhibition at 250 micromolar)
16,"CCOC1O[C@H](COCc2ccc(C(=O)O)cc2)[C@@H](O)[C@H](OCc2ccc(Br)cc2)[C@H]1NC(=O)c1cccc(N)c1 (single isomer, unassigned) [Compound 40]",+++ (81% to 100% inhibition at 250 micromolar)
17,"CCOC1O[C@H](COCc2ccc(C(=O)O)cc2)[C@@H](O)[C@H](OCc2ccc(Br)cc2)[C@H]1NC(=O)c1cccc(N)c1 (single isomer, unassigned) [Compound 41]",+ (36% to 60% inhibition at 250 micromolar)

# Target: T2, αllbβ3 integrin (Homo sapiens, UniProt P05106+P08514)
# T2 construct: Human platelet membrane preparations were used as a source of αllbβ3 integrin; from tissue; host or cells: human platelets (membrane preparation)
# T2 sequence (P08514 32-887 limits assumed): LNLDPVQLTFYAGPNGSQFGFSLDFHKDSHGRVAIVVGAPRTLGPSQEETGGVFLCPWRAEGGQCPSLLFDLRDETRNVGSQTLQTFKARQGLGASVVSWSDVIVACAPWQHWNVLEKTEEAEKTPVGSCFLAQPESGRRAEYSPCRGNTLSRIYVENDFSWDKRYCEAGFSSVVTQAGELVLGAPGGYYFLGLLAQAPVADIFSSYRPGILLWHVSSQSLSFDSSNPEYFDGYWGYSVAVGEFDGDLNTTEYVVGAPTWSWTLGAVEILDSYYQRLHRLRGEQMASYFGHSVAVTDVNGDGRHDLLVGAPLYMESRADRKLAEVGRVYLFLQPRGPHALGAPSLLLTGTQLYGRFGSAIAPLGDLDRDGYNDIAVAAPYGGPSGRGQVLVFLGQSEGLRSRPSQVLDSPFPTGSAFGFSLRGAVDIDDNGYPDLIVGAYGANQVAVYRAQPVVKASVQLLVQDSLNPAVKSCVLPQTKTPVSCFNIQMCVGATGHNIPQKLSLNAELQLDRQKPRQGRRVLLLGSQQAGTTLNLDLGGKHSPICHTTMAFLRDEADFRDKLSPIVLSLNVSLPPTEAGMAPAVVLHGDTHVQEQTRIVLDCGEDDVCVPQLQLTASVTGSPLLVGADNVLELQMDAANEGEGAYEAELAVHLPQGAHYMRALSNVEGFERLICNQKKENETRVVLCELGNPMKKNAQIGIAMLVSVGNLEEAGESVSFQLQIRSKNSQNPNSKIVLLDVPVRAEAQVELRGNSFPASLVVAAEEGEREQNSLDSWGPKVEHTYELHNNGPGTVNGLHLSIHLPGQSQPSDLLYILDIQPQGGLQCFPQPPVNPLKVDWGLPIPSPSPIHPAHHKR
# T2 sequence (P08514 891-1039 partner limits assumed): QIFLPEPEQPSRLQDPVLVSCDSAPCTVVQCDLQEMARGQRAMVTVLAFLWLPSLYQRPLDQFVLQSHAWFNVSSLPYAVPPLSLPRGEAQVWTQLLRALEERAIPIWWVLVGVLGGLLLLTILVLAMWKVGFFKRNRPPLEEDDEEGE
# T2 sequence (P05106 27-788): as the sequence (P05106 27-788) above
# Experiment: ELISA: inhibition of binding of αllbβ3 integrin membrane preparation to coated extracellular matrix protein
# Conditions: substrate fibrinogen, human platelet membrane preparation
# Protocol: as §1, §2
row,SMILES,INHIBITION @ 250 uM RECEPTOR allBb3 SUBSTRATE FIBRINOGEN
1,"COC1OC(COCc2ccc(Br)cc2)C(O)C(OCc2cccc(N)c2)C1NC(=O)CCC(=O)O (single isomer, unassigned) [Compound 25]",+ (36% to 60% inhibition at 250 micromolar)
2,"Nc1cccc(COC2C(O)C(COCc3ccc(Br)cc3)OC(O)C2NC(=O)CCC(=O)O)c1 (single isomer, unassigned) [Compound 26]",+ (36% to 60% inhibition at 250 micromolar)
3,"COC1OC(COCC(=O)O)C(O)C(OCc2cccc(N)c2)C1NC(=O)c1ccccc1 (single isomer, unassigned) [Compound 27]",++ (61% to 80% inhibition at 250 micromolar)
4,"COC1OC(COCC(=O)O)C(O)C(OCc2cccc(N)c2)C1NC(=O)c1ccccc1 (single isomer, unassigned) [Compound 28]",+ (36% to 60% inhibition at 250 micromolar)
5,"Nc1cccc(COC2C(O)C(COCC(=O)O)OC(O)C2NC(=O)c2ccccc2)c1 (single isomer, unassigned) [Compound 29]",++ (61% to 80% inhibition at 250 micromolar)
6,"COC1OC(COCc2ccc(C(=O)O)cc2)C(O)C(OCc2cccc(N)c2)C1NC(=O)c1ccc(Cl)cc1 (single isomer, unassigned) [Compound 30]",++ (61% to 80% inhibition at 250 micromolar)
7,"COC1O[C@H](COCc2ccc(C(=O)O)cc2)[C@@H](O)[C@H](OCc2cccc(N)c2)[C@H]1NC(=O)c1ccc(Cl)cc1 (single isomer, unassigned) [Compound 31]",+++ (81% to 100% inhibition at 250 micromolar)
8,"CCOC1O[C@H](COCC(=O)O)[C@@H](O)[C@H](OCc2ccccc2)[C@H]1NC(=O)c1cccc(N)c1 (single isomer, unassigned) [Compound 32]",+ (36% to 60% inhibition at 250 micromolar)
9,"Nc1cccc(C(=O)N[C@H]2C(O)O[C@H](COCC(=O)O)[C@@H](O)[C@@H]2OCc2ccccc2)c1 (single isomer, unassigned) [Compound 33]",++ (61% to 80% inhibition at 250 micromolar)
10,"Nc1cccc(C(=O)N[C@H]2C(O)O[C@H](COCC(=O)O)[C@@H](O)[C@@H]2OCc2ccccc2)c1 (single isomer, unassigned) [Compound 34]",+ (36% to 60% inhibition at 250 micromolar)
11,"CCOC1O[C@H](COCc2ccc(C(=O)O)cc2)[C@@H](O)[C@H](OCc2ccccc2)[C@H]1NC(=O)c1cccc(N)c1 (single isomer, unassigned) [Compound 35]",+ (36% to 60% inhibition at 250 micromolar)
12,"CCOC1O[C@H](COCc2cccc(N)c2)[C@@H](O)[C@H](OCc2ccccc2)[C@H]1NC(=O)c1ccc(C(=O)O)cc1 (single isomer, unassigned) [Compound 36]",+ (36% to 60% inhibition at 250 micromolar)
13,"CCOC1O[C@H](COCc2cccc(N)c2)[C@@H](O)[C@H](OCc2ccccc2)[C@H]1NC(=O)c1ccc(C(=O)O)cc1 (single isomer, unassigned) [Compound 37]",+ (36% to 60% inhibition at 250 micromolar)
14,"CCOC1O[C@H](COCC(=O)O)[C@@H](O)[C@H](OCc2ccc(Br)cc2)[C@H]1NC(=O)c1cccc(N)c1 (single isomer, unassigned) [Compound 38]",++ (61% to 80% inhibition at 250 micromolar)
15,"CCOC1O[C@H](COCC(=O)O)[C@@H](O)[C@H](OCc2ccc(Br)cc2)[C@H]1NC(=O)c1cccc(N)c1 (single isomer, unassigned) [Compound 39]",+ (36% to 60% inhibition at 250 micromolar)
16,"CCOC1O[C@H](COCc2ccc(C(=O)O)cc2)[C@@H](O)[C@H](OCc2ccc(Br)cc2)[C@H]1NC(=O)c1cccc(N)c1 (single isomer, unassigned) [Compound 40]",+++ (81% to 100% inhibition at 250 micromolar)
17,"CCOC1O[C@H](COCc2ccc(C(=O)O)cc2)[C@@H](O)[C@H](OCc2ccc(Br)cc2)[C@H]1NC(=O)c1cccc(N)c1 (single isomer, unassigned) [Compound 41]",+ (36% to 60% inhibition at 250 micromolar)

# Same assay, conditions: substrate vitronectin, human platelet membrane preparation
row,SMILES,INHIBITION 250 uM RECEPTOR allBb3 SUBSTRATE VITRONECTIN
1,"COC1OC(COCc2ccc(Br)cc2)C(O)C(OCc2cccc(N)c2)C1NC(=O)CCC(=O)O (single isomer, unassigned) [Compound 25]",+++ (81% to 100% inhibition at 250 micromolar)
2,"Nc1cccc(COC2C(O)C(COCc3ccc(Br)cc3)OC(O)C2NC(=O)CCC(=O)O)c1 (single isomer, unassigned) [Compound 26]",+++ (81% to 100% inhibition at 250 micromolar)
3,"COC1OC(COCC(=O)O)C(O)C(OCc2cccc(N)c2)C1NC(=O)c1ccccc1 (single isomer, unassigned) [Compound 27]",+++ (81% to 100% inhibition at 250 micromolar)
4,"COC1OC(COCC(=O)O)C(O)C(OCc2cccc(N)c2)C1NC(=O)c1ccccc1 (single isomer, unassigned) [Compound 28]",+++ (81% to 100% inhibition at 250 micromolar)
5,"Nc1cccc(COC2C(O)C(COCC(=O)O)OC(O)C2NC(=O)c2ccccc2)c1 (single isomer, unassigned) [Compound 29]",+++ (81% to 100% inhibition at 250 micromolar)
6,"COC1OC(COCc2ccc(C(=O)O)cc2)C(O)C(OCc2cccc(N)c2)C1NC(=O)c1ccc(Cl)cc1 (single isomer, unassigned) [Compound 30]",+++ (81% to 100% inhibition at 250 micromolar)
7,"COC1O[C@H](COCc2ccc(C(=O)O)cc2)[C@@H](O)[C@H](OCc2cccc(N)c2)[C@H]1NC(=O)c1ccc(Cl)cc1 (single isomer, unassigned) [Compound 31]",+++ (81% to 100% inhibition at 250 micromolar)
8,"CCOC1O[C@H](COCC(=O)O)[C@@H](O)[C@H](OCc2ccccc2)[C@H]1NC(=O)c1cccc(N)c1 (single isomer, unassigned) [Compound 32]",+++ (81% to 100% inhibition at 250 micromolar)
9,"Nc1cccc(C(=O)N[C@H]2C(O)O[C@H](COCC(=O)O)[C@@H](O)[C@@H]2OCc2ccccc2)c1 (single isomer, unassigned) [Compound 33]",− (0% to 35% inhibition at 250 micromolar)
10,"Nc1cccc(C(=O)N[C@H]2C(O)O[C@H](COCC(=O)O)[C@@H](O)[C@@H]2OCc2ccccc2)c1 (single isomer, unassigned) [Compound 34]",+++ (81% to 100% inhibition at 250 micromolar)
11,"CCOC1O[C@H](COCc2ccc(C(=O)O)cc2)[C@@H](O)[C@H](OCc2ccccc2)[C@H]1NC(=O)c1cccc(N)c1 (single isomer, unassigned) [Compound 35]",+++ (81% to 100% inhibition at 250 micromolar)
12,"CCOC1O[C@H](COCc2cccc(N)c2)[C@@H](O)[C@H](OCc2ccccc2)[C@H]1NC(=O)c1ccc(C(=O)O)cc1 (single isomer, unassigned) [Compound 36]",+++ (81% to 100% inhibition at 250 micromolar)
13,"CCOC1O[C@H](COCc2cccc(N)c2)[C@@H](O)[C@H](OCc2ccccc2)[C@H]1NC(=O)c1ccc(C(=O)O)cc1 (single isomer, unassigned) [Compound 37]",+++ (81% to 100% inhibition at 250 micromolar)
14,"CCOC1O[C@H](COCC(=O)O)[C@@H](O)[C@H](OCc2ccc(Br)cc2)[C@H]1NC(=O)c1cccc(N)c1 (single isomer, unassigned) [Compound 38]",+++ (81% to 100% inhibition at 250 micromolar)
15,"CCOC1O[C@H](COCC(=O)O)[C@@H](O)[C@H](OCc2ccc(Br)cc2)[C@H]1NC(=O)c1cccc(N)c1 (single isomer, unassigned) [Compound 39]",+++ (81% to 100% inhibition at 250 micromolar)
16,"CCOC1O[C@H](COCc2ccc(C(=O)O)cc2)[C@@H](O)[C@H](OCc2ccc(Br)cc2)[C@H]1NC(=O)c1cccc(N)c1 (single isomer, unassigned) [Compound 40]",+++ (81% to 100% inhibition at 250 micromolar)
17,"CCOC1O[C@H](COCc2ccc(C(=O)O)cc2)[C@@H](O)[C@H](OCc2ccc(Br)cc2)[C@H]1NC(=O)c1cccc(N)c1 (single isomer, unassigned) [Compound 41]",++ (61% to 80% inhibition at 250 micromolar)
